Patent US9777005B2 (Takeda Pharmaceutical Company Limited, priority 2012, dated 2017)
pEC50: −log10 of the molar value.

Molecular target: T1, human M1 receptor (hCHRM1) (Homo sapiens, UniProt P11229)
T1 construct: expressed in transfected cells; host or cells: CHO-K1
T1 sequence (P11229 1-460): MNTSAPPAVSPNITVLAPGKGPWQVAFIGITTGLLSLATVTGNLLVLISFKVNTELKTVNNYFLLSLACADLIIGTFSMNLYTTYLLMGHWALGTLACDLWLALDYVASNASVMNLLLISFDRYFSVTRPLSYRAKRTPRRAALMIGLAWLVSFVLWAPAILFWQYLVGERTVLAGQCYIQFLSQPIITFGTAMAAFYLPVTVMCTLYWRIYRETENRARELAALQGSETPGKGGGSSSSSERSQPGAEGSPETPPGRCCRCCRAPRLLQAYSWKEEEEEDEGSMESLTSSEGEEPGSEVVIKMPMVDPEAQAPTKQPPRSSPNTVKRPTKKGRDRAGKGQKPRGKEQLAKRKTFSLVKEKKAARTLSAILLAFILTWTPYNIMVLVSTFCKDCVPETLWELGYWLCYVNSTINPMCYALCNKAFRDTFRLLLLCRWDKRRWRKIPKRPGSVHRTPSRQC
Assay: Measurement of M1 receptor positive allosteric modulator (M1PAM) activity, calcium fluorescence (FLIPRtetra) in CHO-K1 cells in the presence of acetylcholine at EC20
Format: cell-based
Details: in the presence of acetylcholine at EC20 (final 0.6 nM), CHO-K1 cells expressing hCHRM1; for pEC50: inflection point of M1PAM activity, read-out: IP value; for activity (%) at 10 μM: test compound 10 μM
Method in brief: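 PAM activity was measured as calcium flux by FLIPRtetra over 1 min after co-addition of compound and EC20 acetylcholine (final 0.6 nM) to Fluo-4-loaded hCHRM1 CHO-K1 cells. The response was scaled between DMSO (0%) and 1 μM acetylcholine (100%), and the inflection point of the concentration curve gives the IP value.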

| SMILES | pEC50 | activity (%) at 10 μM |
| --- | --- | --- |
| Cc1nn(C)cc1-c1ccc(CN2Cc3ccnc(OCC4CCCO4)c3C2=O)c(F)c1 (stereo not drawn) [Example 229, 2-(4-(1,3-dimethyl-1H-pyrazol-4-yl)-2-fluorobenzyl)-4-((tetrahydrofuran-2-yl)methoxy)-1,2-dihydro-3H-pyrrolo[3,4-c]pyridin-3-one] | 8.21 | 117% |
| Cn1cc(-c2ccc(CN3Cc4cccc(Oc5c(F)cc(N)cc5Cl)c4C3=O)cc2)cn1 [Example 11, 7-(4-amino-2-chloro-6-fluorophenoxy)-2-(4-(1-methyl-1H-pyrazol-4-yl)benzyl)isoindolin-1-one] | 7.19 | 102% |
| Cc1cc(-c2ccc(CN3Cc4cccc(O[C@H]5CCC[C@@H]5O)c4C3=O)cc2)ccn1 (relative stereo) [Example 224, 7-((trans-2-hydroxycyclopentyl)oxy)-2-(4-(2-methylpyridin-4-yl)benzyl)isoindolin-1-one] | 7.42 | 107% |
| O=C1c2c(cccc2O[C@H]2CCCC[C@@H]2O)CN1Cc1ccc(Br)cc1 (relative stereo) [Example 25, 2-(4-bromobenzyl)-7-((trans-2-hydroxycyclohexyl)oxy)isoindolin-1-one] | 6.72 | 113% |
| Cn1cc(-c2ccc(CN3Cc4cccc(O[C@H]5CCCCC[C@@H]5O)c4C3=O)cc2)cn1 (relative stereo) [Example 3, 7-((trans-2-hydroxycycloheptyl)oxy)-2-(4-(1-methyl-1H-pyrazol-4-yl)benzyl)isoindolin-1-one] | 8.04 | 104% |
| Cn1cc(-c2ccc(CN3Cc4ccnc(OC5c6ncccc6CC5(C)C)c4C3=O)cc2)cn1 (stereo not drawn) [Example 349, 4-((6,6-dimethyl-6,7-dihydro-5H-cyclopenta[b]pyridin-7-yl)oxy)-2-(4-(1-methyl-1H-pyrazol-4-yl)benzyl)-1,2-dihydro-3H-pyrrolo[3,4-c]pyridin-3-one] | 7.92 | 104% |
| Cc1nn(C)cc1-c1ccc(CN2Cc3ccnc(OCC4(C)CC4)c3C2=O)c(F)c1 [Example 341, 2-(4-(1,3-dimethyl-1H-pyrazol-4-yl)-2-fluorobenzyl)-4-((1-methylcyclopropyl)methoxy)-1,2-dihydro-3H-pyrrolo[3,4-c]pyridin-3-one] | 7.20 | 93% |
| Cn1ccc(-c2ccc(CN3Cc4ccnc(Oc5ccc(C(F)F)cc5F)c4C3=O)cc2)n1 [Example 380, 4-(4-(difluoromethyl)-2-fluorophenoxy)-2-(4-(1-methyl-1H-pyrazol-3-yl)benzyl)-1,2-dihydro-3H-pyrrolo[3,4-c]pyridin-3-one] | 7.66 | 102% |
| Cn1ccc(-c2ccc(CN3Cc4ccnc(OCC5CCCO5)c4C3=O)cc2)n1 (single isomer, unassigned) [Example 246, 2-(4-(1-methyl-1H-pyrazol-3-yl)benzyl)-4-((tetrahydrofuran-2-yl)methoxy)-1,2-dihydro-3H-pyrrolo[3,4-c]pyridin-3-one] | 8.03 | 100% |
| Cn1cc(-c2ccc(CN3Cc4ccnc(Oc5ccc(C(F)F)cc5F)c4C3=O)cc2)cn1 [Example 391, 4-(4-(difluoromethyl)-2-fluorophenoxy)-2-(4-(1-methyl-1H-pyrazol-4-yl)benzyl)-1,2-dihydro-3H-pyrrolo[3,4-c]pyridin-3-one] | 8.00 | 100% |
| CNC(=O)c1ccc(CN2Cc3ccnc(Oc4ccc(C5CC5)cc4F)c3C2=O)cc1 [Example 447, 4-((4-(4-cyclopropyl-2-fluorophenoxy)-3-oxo-1,3-dihydro-2H-pyrrolo[3,4-c]pyridin-2-yl)methyl)-N-methylbenzamide] | 8.28 | 93% |
| Cc1nn(C)cc1-c1ccc(CN2Cc3ccnc(OC4CCc5cccnc54)c3C2=O)c(F)c1 (stereo not drawn) [Example 346, 4-(6,7-dihydro-5H-cyclopenta[b]pyridin-7-yloxy)-2-(4-(1,3-dimethyl-1H-pyrazol-4-yl)-2-fluorobenzyl)-1,2-dihydro-3H-pyrrolo[3,4-c]pyridin-3-one] | 8.68 | 85% |
| O=C1c2c(cccc2O[C@H]2CCCC[C@@H]2O)CN1Cc1ccc(-c2ccn[nH]2)cc1 (relative stereo) [Example 31, 7-((trans-2-hydroxycyclohexyl)oxy)-2-(4-(1H-pyrazol-5-yl)benzyl)isoindolin-1-one] | 8.07 | 105% |
| O=C1c2c(ccnc2OCC2CCCO2)CN1Cc1ccc(-n2cccn2)cc1 (stereo not drawn) [Example 61, 2-(4-(1H-pyrazol-1-yl)benzyl)-4-((tetrahydrofuran-2-yl)methoxy)-1H-pyrrolo[3,4-c]pyridin-3(2H)-one] | 7.43 | 113% |
| O=C1c2c(cccc2O[C@@H]2CCOC[C@H]2O)CN1Cc1ccc(Br)cc1 (single isomer, unassigned) [Example 268, 1,5-anhydro-3-O-(2-(4-bromobenzyl)-3-oxo-2,3-dihydro-1H-isoindol-4-yl)-2-deoxy-threo-pentitol] | 7.41 | 103% |
| Cc1cc(-c2ccc(CN3Cc4ccnc(O[C@@H]5CCC[C@H]5O)c4C3=O)cc2)ccn1 (single isomer, unassigned) [Example 243, 4-((trans-2-hydroxycyclopentyl)oxy)-2-(4-(2-methylpyridin-4-yl)benzyl)-1,2-dihydro-3H-pyrrolo[3,4-c]pyridin-3-one] | 7.43 | 104% |
| Cn1ccc(-c2ccc(CN3Cc4ccnc(OCC5CCCCO5)c4C3=O)cc2)n1 (stereo not drawn) [Example 253, 2-(4-(1-methyl-1H-pyrazol-3-yl)benzyl)-4-((tetrahydro-2H-pyran-2-yl)methoxy)-1,2-dihydro-3H-pyrrolo[3,4-c]pyridin-3-one] | 7.66 | 100% |
| Cn1cc(-c2ccc(CN3Cc4ccnc(Oc5ccc(Cl)cc5F)c4C3=O)cc2)cn1 [Example 388, 4-(4-chloro-2-fluorophenoxy)-2-(4-(1-methyl-1H-pyrazol-4-yl)benzyl)-1,2-dihydro-3H-pyrrolo[3,4-c]pyridin-3-one] | 7.52 | 102% |
| Cc1ccn(-c2ccc(CN3Cc4cccc(O[C@H]5CCCC[C@@H]5O)c4C3=O)cc2)n1 (relative stereo) [Example 32, 7-((trans-2-hydroxycyclohexyl)oxy)-2-(4-(3-methyl-1H-pyrazol-1-yl)benzyl)isoindolin-1-one] | 8.00 | 110% |
| Cn1cc(-c2ccc(CN3Cc4ccnc(Oc5cc(C#N)ccc5F)c4C3=O)cc2)cn1 [Example 297, 4-fluoro-3-((2-(4-(1-methyl-1H-pyrazol-4-yl)benzyl)-3-oxo-2,3-dihydro-1H-pyrrolo[3,4-c]pyridin-4-yl)oxy)benzonitrile] | 7.80 | 96% |
| O=C1c2c(ccc(F)c2O[C@H]2CCCC[C@@H]2O)CN1Cc1ccc(-n2cccn2)cc1 (relative stereo) [Example 228, 6-fluoro-7-((trans-2-hydroxycyclohexyl)oxy)-2-(4-(1H-pyrazol-1-yl)benzyl)isoindolin-1-one] | 7.03 | 118% |
| Cn1cc(-c2ccc(CN3Cc4ccnc(Oc5cc(CC#N)ccc5F)c4C3=O)cc2)cn1 [Example 406, (4-fluoro-3-((2-(4-(1-methyl-1H-pyrazol-4-yl)benzyl)-3-oxo-2,3-dihydro-1H-pyrrolo[3,4-c]pyridin-4-yl)oxy)phenyl)acetonitrile] | 7.40 | 97% |
| Cc1cc(C#N)cc(F)c1Oc1nccc2c1C(=O)N(Cc1ccc(-c3ccn(C)n3)cc1)C2 [Example 417, 3-fluoro-5-methyl-4-((2-(4-(1-methyl-1H-pyrazol-3-yl)benzyl)-3-oxo-2,3-dihydro-1H-pyrrolo[3,4-c]pyridin-4-yl)oxy)benzonitrile] | 7.80 | 96% |
| Cc1cc(-c2ccc(CN3Cc4ccnc(OCC5CCCO5)c4C3=O)cc2)ccn1 (stereo not drawn) [Example 80] | 8.25 | 100% |
| O=C1c2c(cccc2O[C@H]2CCCC[C@@H]2O)CN1Cc1ccc(-c2ccnnc2)cc1 (relative stereo) [Example 352, 7-((trans-2-hydroxycyclohexyl)oxy)-2-(4-(pyridazin-4-yl)benzyl)isoindolin-1-one] | 8.36 | 94% |
| Cc1cc(-c2ccc(CN3Cc4ccnc(Oc5cc(CO)ccc5F)c4C3=O)cc2)ccn1 [Example 290, 4-(2-fluoro-5-(hydroxymethyl)phenoxy)-2-(4-(2-methylpyridin-4-yl)benzyl)-1,2-dihydro-3H-pyrrolo[3,4-c]pyridin-3-one] | 7.36 | 91% |
| CCC(CO)Oc1nccc2c1C(=O)N(Cc1ccc(-c3cn(C)nc3C)cc1)C2 (single isomer, unassigned) [Example 275, 2-(4-(1,3-dimethyl-1H-pyrazol-4-yl)benzyl)-4-((l-hydroxybutan-2-yl)oxy)-1,2-dihydro-3H-pyrrolo[3,4-c]pyridin-3-one] | 7.12 | 104% |
